According to patent publication US12344597B2, “Alkoxy-substituted pyridinyl derivatives as LPA1 receptor antagonists and their use in the treatment of fibrosis” (IDORSIA PHARMACEUTICALS LTD, priority 2018, dated 2025):

These molecules were tested against human LPA1 receptor (Homo sapiens (Human), UniProt Q92633) (assay: Beta-arrestin recruitment assay to determine IC50 values for human LPAR1). Settings: antagonist mode, Tango EDG2-bla U2OS cells, LPA 18:1 500 nM final.
Type: cell-based
How it was run: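 Tango EDG2-bla U2OS cells: LPA-driven beta-arrestin/TEV protease recruitment releases Gal4-VP16, inducing beta-lactamase reporter read with live-cell substrate. Cells seeded 20 h at 37 °C beforehand. IC50 is antagonist concentration inhibiting 50% of maximal response.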

Sequence of human LPA1 receptor (Q92633 whole entry): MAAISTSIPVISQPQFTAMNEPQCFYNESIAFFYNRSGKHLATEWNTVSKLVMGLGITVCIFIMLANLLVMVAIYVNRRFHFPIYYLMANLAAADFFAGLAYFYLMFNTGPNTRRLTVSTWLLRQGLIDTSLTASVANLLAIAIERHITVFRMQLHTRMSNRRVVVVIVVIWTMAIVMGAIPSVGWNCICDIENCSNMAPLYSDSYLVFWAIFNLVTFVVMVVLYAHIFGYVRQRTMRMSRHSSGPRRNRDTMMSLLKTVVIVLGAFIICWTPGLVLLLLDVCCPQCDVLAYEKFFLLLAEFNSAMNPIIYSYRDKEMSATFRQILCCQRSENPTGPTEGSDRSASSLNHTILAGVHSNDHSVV

Molecule | IC50
CC(C)c1ccccc1C1(C(=O)Nc2cc(F)cnc2OC(F)F)CN(S(N)(=O)=O)C1 [Ex 15-15, N-(2-(difluoromethoxy)-5-fluoropyridin-3-yl)-3-(2-isopropylphenyl)-1-sulfamoylazetidine-3-carboxamide] | 10 nM
Cc1ccc(NC(=O)C2(c3ccccc3C(C)C)CN(c3nc(C(=O)O)co3)C2)c(OC(F)F)n1 [Ex 18-28, 2-(3-((2-(difluoromethoxy)-6-methylpyridin-3-yl)carbamoyl)-3-(2-isopropylphenyl)azetidin-1-yl)oxazole-4-carboxylic acid] | 6 nM
Cc1ccc(NC(=O)C2(c3ccccc3C(C)C)CN(CCNC(=O)CO)C2)c(OC(F)F)n1 [Ex 11-87, N-(2-(difluoromethoxy)-6-methylpyridin-3-yl)-1-(2-(2-hydroxyacetamido)ethyl)-3-(2-isopropylphenyl)azetidine-3-carboxamide] | 26 nM
CCCc1ccccc1C1(C(=O)Nc2ccc(C)nc2OC(F)F)CNC1 [Ex 29, N-(2-(difluoromethoxy)-6-methylpyridin-3-yl)-3-(2-propylphenyl)azetidine-3-carboxamide] | 420 nM
COc1cnc(NC(=O)C2(c3ccccc3C(C)C)CNC2)c(OC)c1 [Ex 75, N-(3,5-dimethoxypyridin-2-yl)-3-(2-isopropylphenyl)azetidine-3-carboxamide] | 4380 nM
Cc1ccc(NC(=O)C2(c3ccccc3C(C)C)CN(C(=O)OCC(C)(C)C(=O)O)C2)c(OC(F)F)n1 [Ex 14-10, 3-((3-((2-(difluoromethoxy)-6-methylpyridin-3-yl)carbamoyl)-3-(2-isopropylphenyl)azetidine-1-carbonyl)oxy)-2,2-dimethylpropanoic acid] | 4 nM
CNC(=O)C(C)(C)CCN1CC(C(=O)Nc2ccc(C)nc2OC(F)F)(c2ccccc2C(C)C)C1 [Ex 11-92, N-(2-(difluoromethoxy)-6-methylpyridin-3-yl)-1-(3,3-dimethyl-4-(methylamino)-4-oxobutyl)-3-(2-isopropylphenyl)azetidine-3-carboxamide] | 44 nM
CCOc1nc(C)ccc1NC(=O)C1(c2ccccc2C(C)C)CN(S(N)(=O)=O)C1 [Ex 15-17, N-(2-ethoxy-6-methylpyridin-3-yl)-3-(2-isopropylphenyl)-1-sulfamoylazetidine-3-carboxamide] | 31 nM
Cc1ccc(NC(=O)C2(c3ccccc3C(C)C)CN(C(=O)CCn3cnnc3)C2)c(OC(F)F)n1 [Ex 12-28, 1-(3-(4H-1,2,4-triazol-4-yl)propanoyl)-N-(2-(difluoromethoxy)-6-methylpyridin-3-yl)-3-(2-isopropylphenyl)azetidine-3-carboxamide] | 222 nM
Cc1ccc(NC(=O)C2(c3ccccc3C(C)C)CN(CC3(CC(=O)O)CC3)C2)c(OC(F)F)n1 [Ex 11-68, 2-(1-((3-((2-(difluoromethoxy)-6-methylpyridin-3-yl)carbamoyl)-3-(2-isopropylphenyl)azetidin-1-yl)methyl)cyclopropyl)acetic acid] | 23 nM
Cc1ccc(NC(=O)C2(c3ccccc3C(C)C)CCN(C(=O)Cc3c[nH]nc3O)CC2)c(OC(F)F)n1 [Ex 12-27, N-(2-(difluoromethoxy)-6-methylpyridin-3-yl)-1-(2-(3-hydroxy-1H-pyrazol-4-yl)acetyl)-4-(2-isopropylphenyl)piperidine-4-carboxamide] | 4 nM
Cc1ccc(NC(=O)C2(c3ccccc3C(C)C)CN(c3ncc(C(=O)O)o3)C2)c(OC(F)F)n1 [Ex 18-32, 2-(3-((2-(difluoromethoxy)-6-methylpyridin-3-yl)carbamoyl)-3-(2-isopropylphenyl)azetidin-1-yl)oxazole-5-carboxylic acid] | 34 nM
COC(=O)c1cc(S(=O)(=O)N2CC(C(=O)Nc3ccc(C)nc3OC(F)F)(c3ccccc3C(C)C)C2)on1 [Ex 13-26, methyl 5-((3-((2-(difluoromethoxy)-6-methylpyridin-3-yl)carbamoyl)-3-(2-isopropylphenyl)azetidin-1-yl)sulfonyl)isoxazole-3-carboxylate] | 25 nM
N-(6-ethoxy-2-methoxypyridin-3-yl)-3-(2-isopropylphenyl)azetidine-3-carboxamide [Ex 9] | 163 nM
Cc1ccc(NC(=O)C2(c3ccccc3C(C)C)CN(C(=O)C3CS(=O)(=O)C3)C2)c(OC(F)F)n1 [Ex 12-129, N-(2-(difluoromethoxy)-6-methylpyridin-3-yl)-1-(1,1-dioxidothietane-3-carbonyl)-3-(2-isopropylphenyl)azetidine-3-carboxamide] | 58 nM
Cc1ccc(NC(=O)C2(c3ccccc3C(C)C)CN(CC3CCC(C(=O)O)CC3)C2)c(OC(F)F)n1 (centres unmarked) [Ex 41, 4-((3-((2-(difluoromethoxy)-6-methylpyridin-3-yl)carbamoyl)-3-(2-isopropylphenyl)azetidin-1-yl)methyl)cyclohexane-1-carboxylic acid] | 96 nM

Molecule | IC50
COc1ccc(NC(=O)C2(c3ccccc3C(C)C)CN(S(N)(=O)=O)C2)c(OC)n1 [Ex 15-7, N-(2,6-dimethoxypyridin-3-yl)-3-(2-isopropylphenyl)-1-sulfamoylazetidine-3-carboxamide] | 4 nM
Cc1ccc(NC(=O)C2(c3ccccc3C(C)C)CN(C(=O)CC3CCN(CCF)CC3)C2)c(OC(F)F)n1 [Ex 12-141, N-(2-(difluoromethoxy)-6-methylpyridin-3-yl)-1-(2-(1-(2-fluoroethyl)piperidin-4-yl)acetyl)-3-(2-isopropylphenyl)azetidine-3-carboxamide] | 204 nM
Cc1ccc(NC(=O)C2(c3ccccc3C(C)C)CN(c3cnc(C(=O)O)cn3)C2)c(OC(F)F)n1 [Ex 18-9, 5-(3-((2-(difluoromethoxy)-6-methylpyridin-3-yl)carbamoyl)-3-(2-isopropylphenyl)azetidin-1-yl)pyrazine-2-carboxylic acid] | 11 nM
Cc1ccc(NC(=O)C2(c3ccccc3C(C)C)CCN(CCO)CC2)c(OC(F)F)n1 [Ex 11-3, N-(2-(difluoromethoxy)-6-methylpyridin-3-yl)-1-(2-hydroxyethyl)-4-(2-isopropylphenyl)piperidine-4-carboxamide] | 32 nM
Cc1ccc(NC(=O)C2(c3ccccc3C(C)C)CN(C(=O)CC(F)(F)C(=O)O)C2)c(OC(F)F)n1 [Ex 12-112, 4-(3-((2-(difluoromethoxy)-6-methylpyridin-3-yl)carbamoyl)-3-(2-isopropylphenyl)azetidin-1-yl)-2,2-difluoro-4-oxobutanoic acid] | 39 nM
Cc1ccc(NC(=O)C2(c3ccccc3C(C)C)CN(C(=O)CCC(C)(C)C(=O)O)C2)c(OC(F)F)n1 [Ex 12-103, 5-(3-((2-(difluoromethoxy)-6-methylpyridin-3-yl)carbamoyl)-3-(2-isopropylphenyl)azetidin-1-yl)-2,2-dimethyl-5-oxopentanoic acid] | 19 nM
Cc1ccc(NC(=O)C2(c3ccccc3C(C)C)CN(c3ccncc3F)C2)c(OC(F)F)n1 [Ex 18-19, N-(2-(difluoromethoxy)-6-methylpyridin-3-yl)-1-(3-fluoropyridin-4-yl)-3-(2-isopropylphenyl)azetidine-3-carboxamide] | 2 nM
COC(=O)C(C)(C)CC(=O)N1CC(C(=O)Nc2ccc(C)nc2OC(F)F)(c2ccccc2C(C)C)C1 [Ex 12-81, methyl 4-(3-((2-(difluoromethoxy)-6-methylpyridin-3-yl)carbamoyl)-3-(2-isopropylphenyl)azetidin-1-yl)-2,2-dimethyl-4-oxobutanoate] | 34 nM
Cc1ccc(NC(=O)C2(c3ccccc3C(C)C)CN(CCC3(C(=O)O)CC3)C2)c(OC(F)F)n1 [Ex 11-72, 1-(2-(3-((2-(difluoromethoxy)-6-methylpyridin-3-yl)carbamoyl)-3-(2-isopropylphenyl)azetidin-1-yl)ethyl)cyclopropane-1-carboxylic acid] | 52 nM
Cc1ccc(NC(=O)C2(c3ccccc3C(C)C)CN(S(=O)(=O)/C=C/C(=O)O)C2)c(OC(F)F)n1 [Ex 13-21, (E)-3-((3-((2-(difluoromethoxy)-6-methylpyridin-3-yl)carbamoyl)-3-(2-isopropylphenyl)azetidin-1-yl)sulfonyl)acrylic acid] | 14 nM
Cc1ccc(NC(=O)C2(c3ccccc3C(C)C)CCN(C(=O)C[C@@H]3OC(C)(C)OC3=O)CC2)c(OC(F)F)n1 [Ex 12-36, (S)-N-(2-(difluoromethoxy)-6-methylpyridin-3-yl)-1-(2-(2,2-dimethyl-5-oxo-1,3-dioxolan-4-yl)acetyl)-4-(2-isopropylphenyl)piperidine-4-carboxamide] | 21 nM
CC(=O)N(CCC(=O)N1CC(C(=O)Nc2ccc(C)nc2OC(F)F)(c2ccccc2C(C)C)C1)OCc1ccccc1 [Ex 12-131, 1-(3-(N-(benzyloxy)acetamido)propanoyl)-N-(2-(difluoromethoxy)-6-methylpyridin-3-yl)-3-(2-isopropylphenyl)azetidine-3-carboxamide] | 640 nM
CCOC(=O)c1nccc(N2CC(C(=O)Nc3ccc(C)nc3OC(F)F)(c3ccccc3C(C)C)C2)n1 [Ex 18-10, ethyl 4-(3-((2-(difluoromethoxy)-6-methylpyridin-3-yl)carbamoyl)-3-(2-isopropylphenyl)azetidin-1-yl)pyrimidine-2-carboxylate] | 120 nM
Cc1ccc(NC(=O)C2(c3ccccc3C(C)C)CN(Cc3cnc(C(=O)O)cn3)C2)c(OC(F)F)n1 [Ex 11-55, 5-((3-((2-(difluoromethoxy)-6-methylpyridin-3-yl)-carbamoyl)3-(2-isopropylphenyl)azetidin-1-yl)methyl)pyrazine-2-carboxylic acid] | 142 nM
Cc1ccc(NC(=O)C2(c3ccccc3C(C)C)CN(c3ccc(C#N)cn3)C2)c(OC(F)F)n1 [Ex 18-22, 1-(5-cyanopyridin-2-yl)-N-(2-(difluoromethoxy)-6-methylpyridin-3-yl)-3-(2-isopropylphenyl)azetidine-3-carboxamide] | 1 nM
Cc1ccc(NC(=O)C2(c3ccccc3C(C)C)CN(CCCC(C)(C)N)C2)c(OC(F)F)n1 [Ex 11-94, 1-(4-amino-4-methylpentyl)-N-(2-(difluoromethoxy)-6-methylpyridin-3-yl)-3-(2-isopropylphenyl)azetidine-3-carboxamide] | 64 nM
